# Assays:
# PKC-βII = molecular target: T1, PKC-βII (Homo sapiens, UniProt P05771); test: PKC-βII western blot of Bryostatin 1-treated cell lines; type: cell-based; conditions: 24 hours exposure
# T1 construct: Leukemia cell protein extracts were prepared by lysing cells with RIPA buffer; endogenous in cells; host or cells: Toledo, Kopn8, Nalm6
# Method: (§1) FIGS. 10A-10E: (FIG. 10A) Three cell lines (Toldeo, Kopn8 and Nalm6) were co-incubated with Bryostatin 1 at varying concentrations for 24 hours. At 24 hours, cells were collected for protein kinase C (PKC)-βII isoform analysis by western blot. (FIG. 10B) KOPN8 or SEM cell lines were exposed to Bryostatin 1 for 16, 24, 48 or 72 hours. RNA was extracted from cells and analyzed using RNAseq. (FIG. 10C) Immunofluorescent staining of CD22 was conducted through permeabilization followed by staining of CD22. (FIG. 10D) Four cell lines were co-incubated with various combinations of Enzastaurin (10 μM), Staurosporine (100 μM), or Bryostatin 1 (1 nM) for 24 hours. CD22 expression was assessed using flow cytometry. MFI fold change=CD22 MFI^Bryostatin1/CD22 MFI^DMSO. (FIG. 10E) Cell lines were co-incubated with 1 nM Bryostatin 1 for 24 hours and measured for CD22 expression using CD22-PE antibody. MFI fold change=CD22 MFI^Bryostatin 1/CD22 MFI^DMSO.
# Leukemia cell protein extracts were prepared by lysing cells with RIPA buffer and heating at 98° C. for 5 minutes. The proteins were separated on an SDS-PAGE gel and transferred to a nitrocellulose membrane. The membranes were immunoblotted with antibodies PKC-βII and GAPDH (Abcam), overnight at 4° C. […]
# [1] = test system: CD22 expression on ALL and DLBCL cell lines (Nalm6, Kopn8, SEM, Pfeiffer, Toledo, PDX); test: CD22 expression on leukemia/lymphoma cells by flow cytometry after drug exposure in vitro; type: cell-based, human
# Method: (§2) FIGS. 3A-3D: (FIG. 3A) Four cell lines (Nalm6, Kopn8, Pfieffer and Toldeo) were co-incubated with 1 ng/ml Bryostatin 1 for 24 hours and analyzed using flow cytometry one day after Bryostatin 1 exposure. Site density was analyzed using standardized Quantibrite-PE beads. (FIG. 3B) Cell lines were co-incubated with 1 ng/ml Bryostatin 1 for 24 hours, washed, and analyzed using flow cytometry at 1 and 7 days after Bryostatin 1 exposure. Fold change was calculated based on site density: (Cell line Bryostatin 1—Cell line DMSO)/Cell line DMSO. (FIG. 3C) NSG mice were injected with 1×10^6 GPF-positive Nalm6 leukemia cells on Day 0. Bryostatin 1 was administered at 0.8 μg/kg on Day 3. Mice were sacrificed 7 and 12 days after Bryostatin 1 injection and CD22 was evaluated by flow cytometry. (FIG. 3D) CD22-low relapse PDX cell line was cultured in vitro with 1 nmol/L Bryostatin 1 for 24 hours and measured for CD22 expression using CD22 antibody.
# as §1
# FIG. 11: CD22^lo or parental Nalm6 cell lines were exposed to 1 ng/ml Bryostatin 1 for 24 hours. CD22 expression was assessed using flow cytometry.
# For all in vitro experiments and tumor/CAR pretreatment prior to intravenous injection, Bryostatin 1 was administered to cells at a concentration of 1 ng/mL. Dimethyl sulfoxide (DMSO) vehicle control was administered to control-treated cells at an equal volume. Prior to co-culture or intravenous injection, Bryostatin 1- and DMSO-treated cells were washed 3x in sterile PBS. For all in vivo experiments, Bryostatin 1 was diluted in PBS and administered via intraperitoneal injection at a dose of 40 μg/kg (1 μg/25 g mouse). For control-treated groups, an equal volume of DMSO was diluted in PBS and administered in the same manner
# FACS analysis of cell surface CAR and protein expression was performed using an LSR II Fortessa flow cytometer (BD Biosciences). CD22-CAR was detected by incubation with 22-Fc (R&D Systems), followed by incubation with human IgG-specific PE-F(ab)2 (Thermo Fisher Scientific). The following human monoclonal antibodies were used for detection of cell surface proteins: CD22-APC, CD22-PE, CD19-Pacific Blue, CD45-PerCP/Cy5.5, CD3-APC/Cy7, PD1-PE/Cy7, LAG3-APC, TIM3-Pacific Blue, CD8-APC, CD8-PE/Cy7, CD45RA-APC, CD45RO-PE/Cy7, CCR7-Pacific Blue, CD4-Pacific Blue, CD69-APC (all from BioLegend). CD22 site density was determined using QuantiBrite-PE beads (BD Biosciences) using methods previously described (Jasper et al., Cytometry B Clin Cytom 80(2):83-90, 2011). Dead cells were identified using eFluor 506 fixable viability dye (Thermo Fisher Scientific). GFP-expressing leukemia cells were identified through the FITC channel.
# [2] = test system: CD19 expression on ALL and DLBCL cell lines; test: CD19 expression on cell lines by flow cytometry after Bryostatin 1 exposure; type: cell-based, human; conditions: 1 ng/ml, 24 hours
# Method: as §2, with “antibody. […]” for “antibody.”
# FACS analysis of cell surface CAR and protein expression was performed using an LSR II Fortessa flow cytometer (BD Biosciences). CD22-CAR was detected by incubation with 22-Fc (R&D Systems), followed by incubation with human IgG-specific PE-F(ab)2 (Thermo Fisher Scientific). […] CD22 site density was determined using QuantiBrite-PE beads (BD Biosciences) using methods previously described (Jasper et al., Cytometry B Clin Cytom 80(2):83-90, 2011). […]
# [3] = test system: ALL and DLBCL tumor cells (Nalm6 site density lines and others); test: In vitro cytokine / granzyme B production assay (ELISA), CAR T cells co-cultured with tumor cells; type: cell-based, human
# Method: For cytokine production assays, CAR or mock T cells were washed to remove IL-2 and re-suspended in RPMI medium. 1×10^5 effector cells were then co-cultured with tumor cells in RPMI at a 1:1 effector to target ratio in 96-well plates and incubated at 37° C. for 20 hours. The plates were spun at 1200 RPM for 6 minutes to pellet the cells, and cytokine concentrations in the culture supernatants were measured using IL-2 ELISA (R&D systems), IFNγ ELISA (R&D systems), or granzyme B ELISA (Thermo Fisher Scientific) kits according to the manufacturer's directions.
# [4] = test system: CD22 expression on ALL and DLBCL cell lines (Nalm6, Kopn8, SEM, Pfeiffer, Toledo, PDX); conditions: Biberacher et al. 2012; cited from earlier work
# [5] = CAR T cells pre-treated 1 ng/ml 24 hours, co-culture with ALL or DLBCL cell lines
# T1 sequence (P05771 1-673 isoform P05771-2): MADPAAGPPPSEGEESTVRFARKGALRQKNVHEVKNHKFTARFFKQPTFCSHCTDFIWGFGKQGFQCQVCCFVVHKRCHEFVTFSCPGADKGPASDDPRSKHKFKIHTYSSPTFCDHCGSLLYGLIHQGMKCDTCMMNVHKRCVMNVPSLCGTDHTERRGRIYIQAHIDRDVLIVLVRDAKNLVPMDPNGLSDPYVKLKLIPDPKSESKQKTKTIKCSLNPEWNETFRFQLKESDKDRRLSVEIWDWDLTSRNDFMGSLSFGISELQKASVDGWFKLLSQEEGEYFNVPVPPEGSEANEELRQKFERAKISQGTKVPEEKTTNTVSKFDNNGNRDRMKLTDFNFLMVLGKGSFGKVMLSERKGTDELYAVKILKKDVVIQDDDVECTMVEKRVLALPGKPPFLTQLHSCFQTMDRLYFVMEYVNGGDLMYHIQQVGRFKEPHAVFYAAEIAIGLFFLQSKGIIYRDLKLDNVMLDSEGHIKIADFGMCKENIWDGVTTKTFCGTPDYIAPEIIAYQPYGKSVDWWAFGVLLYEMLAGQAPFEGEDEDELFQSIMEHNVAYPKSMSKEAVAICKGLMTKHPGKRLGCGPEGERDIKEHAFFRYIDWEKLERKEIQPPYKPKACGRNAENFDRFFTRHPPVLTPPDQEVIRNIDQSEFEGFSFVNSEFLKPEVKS
structure (smiles),measurement,setting,value
CCC/C=C/C=C/C(=O)O[C@H]1/C(=C/C(=O)OC)C[C@H]2C[C@H]([C@@H](C)O)OC(=O)C[C@H](O)C[C@@H]3C[C@H](OC(C)=O)C(C)(C)[C@](O)(C[C@@H]4C/C(=C/C(=O)OC)C[C@H](/C=C/C(C)(C)[C@]1(O)O2)O4)O3 [Bryostatin 1],PKCβII protein levels on ALL,PKC-βII,decreased
same,persistence of increased CD22 expression following removal of drug,"[1]; 24 hours exposure, washed, analyzed at 1 and 7 days",persisted for a week
same,CD22 expression on CD22^lo leukemia cells following exposure,"[1]; CD22^lo Nalm6, 1 ng/ml, 24 hours",did not demonstrate an increase
same,CD22 expression (MFI fold change),"[1]; KOPN8 and SEM, 1 nM, 24 hours",robust upregulation
same,CD22 on CD22-low relapse patient-derived ALL xenograft,"[1]; PDX cell line cultured in vitro, 1 nmol/L, 24 hours",upregulated
same,CD22 expression upon exposure,"[1]; all four cell lines (two pre-B ALL, two DLBCL), 1 ng/ml, 24 hours",significant increase
same,CD19 expression on ALL,[2],did not alter
same,CD19 expression on DLBCL,[2],modest increase
same,IFN-γ produced by pre-treated CD22 CAR relative to DMSO-control,[3]; [5],attenuated levels
same,granzyme B produced by pre-treated CD22 CAR relative to DMSO-control,[3]; [5],significantly increased levels
same,Granzyme B production by the CD19 CAR,[3]; SEM cells exposed to 1 nM for 24 hours,did not show improved Granzyme B production
same,"production of IL-2, IFN-γ, and granzyme B by the CD22 CAR","[3]; pre-treatment of B-ALL and DLBCL target cells, 1 ng/ml 24 hours",significantly enhanced
same,CD22 expression on chronic lymphocytic leukemia (CLL),[4],increase CD22 expression
